In patent EP4273147A1, “SUBSTITUTED SPIROLACTAMS, SALTS THEREOF AND THEIR USE AS HERBICIDALLY ACTIVE SUBSTANCES” (Bayer Aktiengesellschaft, priority 2022, dated 2023):

How the values were obtained:
[1] = test system: BRSNW; assay: Post-emergence effects on crop plants (Table F5); assay type: in vivo, Brassica napus; settings: crop plant BRSNW
Excerpt: (§1) 2 to 3 weeks after sowing, the test plants were sprayed in the single-leaf stage.

[2] = test system: GLXMA; assay: Post-emergence effects on crop plants (Table F4); assay type: in vivo, Glycine max; settings: application rate 80 g/ha, crop plant GLXMA
Excerpt: as §1

[3] = test system: VERPE; assay: Herbicidal pre-emergence action, section C (Table C11); assay type: in vivo, Veronica persica; settings: visual grading after ca. 3 weeks
Excerpt: (§3) Seeds of mono- and dicotyledonous weed plants and crop plants were sown, in plastic or organic planting pots, in sandy loam and covered with soil. The compounds according to the invention, formulated in the form of wettable powders (WP) or as emulsifiable concentrates (EC), were applied to the surface of the covering soil as aqueous suspension or emulsion, with the addition of 0.5% of an additive, at an application rate of 600 1 of water/ha (converted). Following treatment, the pots were placed in a greenhouse and kept under optimum growth conditions for the test plants.

[4] = test system: TRZAS; assay: Post-emergence effects on crop plants (Table F2); assay type: in vivo, Triticum aestivum; settings: crop plant TRZAS
Excerpt: as §1

[5] = test system: ZEAMX; assay: Post-emergence effects on crop plants (Table F1); assay type: in vivo, Zea mays; settings: application rate 320 g/ha, crop plant ZEAMX
Excerpt: as §1

[6] = test system: VERPE; assay: Herbicidal post-emergence action, section E (Table E9); assay type: in vivo, Veronica persica; settings: application rate 320 g/ha; assessed visually after ca. 3 weeks
Excerpt: as §1

[7] = test system: ECHCG; assay: Herbicidal pre-emergence action, section C (Table C6); assay type: in vivo, Echinochloa crus-galli; settings: application rate 80 g/ha; visual grading after ca. 3 weeks
[8] = test system: SETVI; assay: Herbicidal pre-emergence action, section C (Table C10); assay type: in vivo, Setaria viridis; settings: application rate 80 g/ha; visual grading after ca. 3 weeks
[9] = test system: VIOTR; assay: Herbicidal pre-emergence action, section C (Table C12); assay type: in vivo, Viola tricolor; settings: visual grading after ca. 3 weeks
[10] = test system: AVEFA; assay: Herbicidal pre-emergence action, section C (Table C4); assay type: in vivo, Avena fatua; settings: application rate 320 g/ha; visual grading after ca. 3 weeks
Excerpt: as §3

[11] = test system: ALOMY; assay: Herbicidal pre-emergence action, section C (Table C2); assay type: in vivo, Alopecurus myosuroides; settings: visual grading after ca. 3 weeks
[12] = test system: POLCO; assay: Herbicidal pre-emergence action, section C (Table C9); assay type: in vivo, Polygonum convolvulus; settings: application rate 80 g/ha; visual grading after ca. 3 weeks
Excerpt: as §3

[13] = test system: DIGSA; assay: Herbicidal post-emergence action, section E (Table E4); assay type: in vivo, Digitaria sanguinalis; settings: application rate 320 g/ha; assessed visually after ca. 3 weeks
Excerpt: as §1

[14] = test system: AMARE; assay: Herbicidal pre-emergence action, section C (Table C3); assay type: in vivo, Amaranthus retroflexus; settings: application rate 320 g/ha; visual grading after ca. 3 weeks
[15] = test system: ALOMY; assay: Herbicidal post-emergence action, section E (Table E2); assay type: in vivo, Alopecurus myosuroides; settings: assessed visually after ca. 3 weeks
Excerpt: as §1

[16] = test system: ECHCG; assay: Herbicidal post-emergence action, section E (Table E5); assay type: in vivo, Echinochloa crus-galli; settings: application rate 320 g/ha; assessed visually after ca. 3 weeks
Excerpt: as §1

[17] = test system: ORYZA; assay: Post-emergence effects on crop plants (Table F3); assay type: in vivo, Oryza sativa; settings: crop plant ORYZA
Excerpt: as §1

[18] = test system: MATIN; assay: Herbicidal pre-emergence action, section C (Table C8); assay type: in vivo, Matricaria inodora; settings: application rate 320 g/ha; visual grading after ca. 3 weeks
[19] = test system: DIGSA; assay: Herbicidal pre-emergence action, section C (Table C5); assay type: in vivo, Digitaria sanguinalis; settings: application rate 80 g/ha; visual grading after ca. 3 weeks
[20] = test system: LOLRI; assay: Herbicidal pre-emergence action, section C (Table C7); assay type: in vivo, Lolium rigidum; settings: application rate 320 g/ha; visual grading after ca. 3 weeks
[21] = test system: TRZAS; assay: Pre-emergence effects on crop plants (Table D2); assay type: in vivo, Triticum aestivum; settings: crop plant; application rate 320 g/ha; visual grading after ca. 3 weeks
[22] = test system: POLCO; assay: Herbicidal post-emergence action, section E (Table E7); assay type: in vivo, Polygonum convolvulus; settings: application rate 320 g/ha; assessed visually after ca. 3 weeks
Excerpt: as §1

[23] = test system: GLXMA; assay: Pre-emergence effects on crop plants (Table D4); assay type: in vivo, Glycine max; settings: crop plant; application rate 320 g/ha; visual grading after ca. 3 weeks
[24] = test system: VIOTR; assay: Herbicidal post-emergence action, section E (Table E10); assay type: in vivo, Viola tricolor; settings: application rate 320 g/ha; assessed visually after ca. 3 weeks
Excerpt: as §1

[25] = test system: SETVI; assay: Herbicidal pre-emergence action (Table A5); assay type: in vivo, Setaria viridis; settings: application rate 320 g/ha; visual grading after ca. 3 weeks
Procedure, shortened: (§2)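 One monocotyledonous and one dicotyledonous weed species shared each pot. Seeds were sown in sandy loam and covered over with soil.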

[26] = test system: STEME; assay: Herbicidal pre-emergence action (Table A6); assay type: in vivo, Stellaria media; settings: application rate 320 g/ha; visual grading after ca. 3 weeks
Procedure, shortened: as §2

[27] = test system: LOLRI; assay: Herbicidal pre-emergence action (Table A3); assay type: in vivo, Lolium rigidum; settings: application rate 320 g/ha; visual grading after ca. 3 weeks
Procedure, shortened: as §2

[28] = test system: ZEAMX; assay: Pre-emergence effects on crop plants (Table D1); assay type: in vivo, Zea mays; settings: crop plant; application rate 80 g/ha; visual grading after ca. 3 weeks
[29] = test system: BRSNW; assay: Pre-emergence effects on crop plants (Table D5); assay type: in vivo, Brassica napus; settings: crop plant; application rate 320 g/ha; visual grading after ca. 3 weeks
[30] = test system: ORYZA; assay: Pre-emergence effects on crop plants (Table D3); settings: crop plant; application rate 320 g/ha; visual grading after ca. 3 weeks
[31] = test system: ECHCG; assay: Herbicidal pre-emergence action (Table A2); assay type: in vivo, Echinochloa crus-galli; settings: application rate 320 g/ha; visual grading after ca. 3 weeks
Procedure, shortened: as §2

[32] = test system: MATIN; assay: Herbicidal pre-emergence action (Table A4); assay type: in vivo, Matricaria inodora; settings: application rate 1280 g/ha; visual grading after ca. 3 weeks
Procedure, shortened: as §2

[33] = test system: POAAN; assay: Herbicidal pre-emergence action (Table A7); assay type: in vivo, Poa annua; settings: application rate 320 g/ha; visual grading after ca. 3 weeks
Procedure, shortened: as §2

Compound: O=C1N(Cc2c(F)cccc2F)CCCC12CCCN(Cc1c(F)cccc1F)C2=O (single isomer, unassigned; (-)) [I-009, (-)-2,8-bis[(2,6-difluorophenyl)methyl]-2,8-diazaspiro[5.5]undecane-1,7-dione]
- post-emergence activity against BRSNW ([1]; application rate 320 g/ha): 20%
- post-emergence activity against GLXMA [2]: 20%
- pre-emergence activity against VERPE ([3]; application rate 320 g/ha): 90%
- post-emergence activity against TRZAS ([4]; application rate 80 g/ha): 10%
- post-emergence activity against ZEAMX [5]: 20%
- post-emergence activity against VERPE [6]: 80%
- pre-emergence activity against ECHCG [7]: 100%
- pre-emergence activity against SETVI [8]: 100%
- pre-emergence activity against VIOTR ([9]; application rate 80 g/ha): 80%
- pre-emergence activity against AVEFA [10]: 90%
- pre-emergence activity against ALOMY ([11]; application rate 80 g/ha): 100%
- pre-emergence activity against POLCO [12]: 80%
- post-emergence activity against DIGSA [13]: 90%
- pre-emergence activity against AMARE [14]: 90%
- post-emergence activity against ALOMY ([15]; application rate 80 g/ha): 80%
- post-emergence activity against ECHCG [16]: 90%
- post-emergence activity against ORYZA ([17]; application rate 80 g/ha): 10%
- pre-emergence activity against MATIN [18]: 90%
- pre-emergence activity against DIGSA [19]: 100%
- pre-emergence activity against LOLRI [20]: 100%

Compound: O=C1N(Cc2cc(F)ccc2F)CCCC12CCCN(Cc1cc(F)ccc1F)C2=O (racemic) [I-017]
- post-emergence activity against BRSNW ([1]; application rate 80 g/ha): 0%
- pre-emergence activity against TRZAS [21]: 10%
- post-emergence activity against POLCO [22]: 100%
- pre-emergence activity against GLXMA [23]: 20%
- post-emergence activity against VIOTR [24]: 80%
- pre-emergence activity against SETVI [25]: 100%
- post-emergence activity against GLXMA [2]: 20%
- pre-emergence activity against VERPE ([3]; application rate 80 g/ha): 90%
- post-emergence activity against TRZAS ([4]; application rate 320 g/ha): 10%
- pre-emergence activity against STEME [26]: 90%
- post-emergence activity against ZEAMX [5]: 10%
- post-emergence activity against VERPE [6]: 80%
- pre-emergence activity against LOLRI [27]: 100%
- pre-emergence activity against ECHCG [7]: 100%
- pre-emergence activity against SETVI [8]: 90%
- pre-emergence activity against ZEAMX [28]: 10%
- pre-emergence activity against VIOTR ([9]; application rate 320 g/ha): 80%
- pre-emergence activity against ALOMY ([11]; application rate 320 g/ha): 90%
- pre-emergence activity against BRSNW [29]: 20%
- pre-emergence activity against ORYZA [30]: 20%
- post-emergence activity against ALOMY ([15]; application rate 320 g/ha): 80%
- post-emergence activity against ECHCG [16]: 80%
- post-emergence activity against ORYZA ([17]; application rate 320 g/ha): 0%
- pre-emergence activity against ECHCG [31]: 100%
- pre-emergence activity against MATIN [18]: 80%
- pre-emergence activity against DIGSA [19]: 100%
- pre-emergence activity against MATIN [32]: 90%
- pre-emergence activity against POAAN [33]: 100%
